In this assay the target is T1, human PD-1 (Jurkat-PD-1 cells) / PE-labeled human PD-L1-Ig (Homo sapiens, UniProt Q15116).
T1 construct: expressed in transfected cells; host or cells: Jurkat cell line over-expressing human PD-1
In words: Jurkat-PD-1 Cell Binding High-Content Screening Assay (CBA); Jurkat hPD1-PDL1 assay. To be noted: Jurkat cell line over-expressing human PD-1; PE-labeled PD-L1-Ig 20 nM final; compound incubated 2 hours at 37° C.; read-out: Jurkat HPD1-PDL1 IC50. Summed up:
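Jurkat cells over-expressing human PD-1, seeded in DMEM with 10% fetal calf serum, were preincubated with compound for 2 hours at 37° C. PE-labeled human PD-L1-Ig was then added at 20 nM final, and cell-bound fluorescence was read by high-content imaging.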

The values that follow come from patent publication US20240360178A1, “MACROCYCLIC IMMUNOMODULATORS” (Bristol-Myers Squibb Company, priority 2021, published 2024).

pIC50: −log10 of the molar value. Positions of bridges follow the written chain, without caps; N, C: chain ends. Non-standard residues stand in square brackets, D forms with d. Residues, ends and D or L forms follow the SMILES beside them. ξ: configuration not given here. *: point of attachment. Phe(3-CF3) = N[C@@H](Cc1cccc(C(F)(F)F)c1)C(=O)O; Bip = N[C@@H](Cc1ccc(-c2ccccc2)cc1)C(=O)O; Phe(3-Me) = Cc1cccc(C[C@H](N)C(=O)O)c1; 1Nal = N[C@@H](Cc1cccc2ccccc12)C(=O)O; NMeF = CN[C@@H](Cc1ccccc1)C(=O)O; 4Pal = N[C@@H](Cc1ccncc1)C(=O)O; Cha = N[C@@H](CC1CCCCC1)C(=O)O; Cit = NC(=O)NCCC[C@H](N)C(=O)O; dPip = O=C(O)[C@H]1CCCCN1; Carboxymethyl = O=C(O)C*; NMeA = CN[C@@H](C)C(=O)O; Nle = CCCC[C@H](N)C(=O)O; Orn = NCCC[C@H](N)C(=O)O; Dab = NCC[C@H](N)C(=O)O; ξV = CC(C)C(N)C(=O)O; Sar = CNCC(=O)O

T1 sequence (Q15116 25-288): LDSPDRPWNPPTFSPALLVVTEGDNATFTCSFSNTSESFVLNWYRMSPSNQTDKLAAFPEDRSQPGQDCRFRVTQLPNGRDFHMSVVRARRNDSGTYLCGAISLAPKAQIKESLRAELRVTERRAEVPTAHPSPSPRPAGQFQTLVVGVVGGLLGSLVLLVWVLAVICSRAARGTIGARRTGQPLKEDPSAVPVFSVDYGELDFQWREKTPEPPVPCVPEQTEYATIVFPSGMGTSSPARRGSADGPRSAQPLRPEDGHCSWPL

`CC(C)C[C@@H]1NC(=O)[C@H](CCCNC(=N)N)NC(=O)[C@H](Cc2ccccc2)N(C)C(=O)[C@H](C)N(C)C(=O)[C@H](CCCN)NC(=O)[C@H](Cc2ccc(-c3ccccc3)cc2)NC(=O)[C@H](C(C)C)NC(=O)[C@H](Cc2c[nH]c3ccccc23)NC(=O)[C@H](CC(=O)O)NC(=O)[C@H](Cc2ccc(O)cc2)NC(=O)[C@H](CCC(N)=O)NC(=O)CSC[C@@H](C(=O)NCC(N)=O)NC(=O)[C@H](CO)NC(=O)[C@H](C(C)C)NC1=O` [Example 1294] ({CH2CO}-QYDWV[Bip][Orn][NMeA][NMeF]RLVSCG-NH2; thioether N-14): the pIC50 is 6.85.

On to `CC(C)C[C@@H]1NC(=O)[C@H](Cc2cccc3ccccc23)NC(=O)[C@H](CC(=O)O)NC(=O)[C@H](Cc2ccc(O)cc2)NC(=O)[C@H](Cc2ccccc2)NC(=O)CSC[C@@H](C(=O)N[C@@H](C)C(N)=O)NC(=O)[C@H](CO)NC(=O)[C@H](C(C)C)NC(=O)[C@H](CC(C)C)NC(=O)[C@H](CC(N)=O)NC(=O)CN(C)C(=O)[C@H](C)N(C)C(=O)[C@H](C(C)C)NC(=O)[C@H](Cc2ccc(-c3ccccc3)cc2)NC1=O` [Example 1116] ({CH2CO}-FYD[1Nal]L[Bip]V[NMeA][Sar]NLVSCA-NH2; thioether N-14), for which the pIC50 was 6.40.

For the compound `CC(C)C[C@@H]1NC(=O)[C@H](Cc2c[nH]c3ccccc23)NC(=O)[C@H](CC(=O)O)NC(=O)[C@H](Cc2ccc(O)cc2)NC(=O)[C@H](Cc2c[nH]c3ccccc23)NC(=O)CSC[C@@H](C(=O)NCC(N)=O)NC(=O)[C@H](CO)NC(=O)[C@H](C(C)C)NC(=O)[C@H](CC(C)C)NC(=O)[C@H](CC(N)=O)NC(=O)CN(C)C(=O)[C@H](C)N(C)C(=O)[C@H](C(C)C)NC(=O)[C@H](Cc2ccc(-c3ccccc3)cc2)NC1=O` [Example 1135] ({CH2CO}-WYDWL[Bip]V[NMeA][Sar]NLVSCG-NH2; thioether N-14), the pIC50 is 6.26.

`CC(C)C[C@@H]1NC(=O)[C@H](CCCNC(=N)N)NC(=O)[C@H](Cc2ccccc2)N(C)C(=O)[C@H](C)N(C)C(=O)[C@H](CCCNC(=N)N)NC(=O)[C@H](Cc2ccc(-c3ccccc3)cc2)NC(=O)[C@H](C(C)C)NC(=O)[C@H](Cc2c[nH]c3ccccc23)NC(=O)[C@H](CC(=O)O)NC(=O)[C@H](Cc2ccc(O)cc2)NC(=O)[C@H](C)NC(=O)CSC[C@@H](C(=O)NCC(N)=O)NC(=O)[C@H](CO)NC(=O)[C@H](C(C)C)NC1=O` [Example 1203] ({CH2CO}-AYDWV[Bip]R[NMeA][NMeF]RLVSCG-NH2; thioether N-14): the negative logarithm of the IC50 (pIC50) was 6.07.

In the case of `CC(C)C[C@@H]1NC(=O)[C@H](CCCNC(=N)N)NC(=O)[C@H](Cc2ccccc2)N(C)C(=O)[C@H](C)N(C)C(=O)[C@H](CCC(=O)O)NC(=O)[C@H](Cc2ccc(-c3ccccc3)cc2)NC(=O)[C@H](C(C)C)NC(=O)[C@H](Cc2c[nH]c3ccccc23)NC(=O)[C@H](CC(=O)O)NC(=O)[C@H](Cc2ccc(O)cc2)NC(=O)[C@H](CC(N)=O)NC(=O)CSC[C@@H](C(=O)N[C@@H](C)C(N)=O)NC(=O)[C@H](CCCN)NC(=O)[C@H](C(C)C)NC1=O` [Example 1378] ({CH2CO}-NYDWV[Bip]E[NMeA][NMeF]RLV[Orn]CA-NH2; thioether N-14), the negative logarithm of the IC50 (pIC50) is 6.96.

Regarding `CCCC[C@@H]1NC(=O)[C@H](CC(N)=O)NC(=O)[C@H]2CCCN2C(=O)[C@H](C)N(C)C(=O)[C@H](C(C)C)NC(=O)[C@H](Cc2ccc(-c3ccccc3)cc2)NC(=O)[C@H](CC(C)C)NC(=O)[C@H](Cc2c[nH]c3ccccc23)NC(=O)[C@H](CC(=O)O)NC(=O)[C@H](Cc2ccc(O)cc2)NC(=O)[C@H](Cc2ccccc2)NC(=O)CSC[C@@H](C(=O)N[C@@H](C)C(N)=O)NC(=O)[C@H]([C@@H](C)O)NC(=O)[C@H](CCCNC(=N)N)NC1=O` [Example 1121] ({CH2CO}-FYDWL[Bip]V[NMeA][dP]N[Nle]RTCA-NH2; thioether N-14), the pIC50 is 6.37.

As for `CC(C)C[C@@H]1NC(=O)[C@H](Cc2c[nH]c3ccccc23)NC(=O)[C@H](CC(=O)O)NC(=O)[C@H](Cc2ccc(OCC(=O)O)cc2)NC(=O)[C@H](Cc2ccncc2)NC(=O)CSC[C@@H](C(=O)N[C@@H](C)C(N)=O)NC(=O)[C@H](CO)NC(=O)[C@H](C(C)C)NC(=O)[C@H](CC(C)C)NC(=O)[C@H](CC(N)=O)NC(=O)[C@H]2CCCN2C(=O)[C@H](C)N(C)C(=O)[C@H](C(C)C)NC(=O)[C@H](Cc2ccc(-c3ccccc3)cc2)NC1=O` [Example 1391] ({CH2CO}-[4Pal]Y(Carboxymethyl)DWL[Bip]V[NMeA][dP]NLVSCA-NH2; thioether N-14), the pIC50 is 7.40.

`CC(C)C[C@@H]1NC(=O)[C@H](CCCNC(=N)N)NC(=O)[C@H](Cc2ccccc2)N(C)C(=O)[C@H](CCN)NC(=O)[C@H](CCCNC(=N)N)NC(=O)[C@H](Cc2ccc(-c3ccccc3)cc2)NC(=O)[C@H](C(C)C)NC(=O)[C@H](Cc2c[nH]c3ccccc23)NC(=O)[C@H](CC(=O)O)NC(=O)[C@H](Cc2ccc(O)cc2)NC(=O)[C@H](Cc2ccccc2)NC(=O)CSC[C@@H](C(=O)NCC(N)=O)NC(=O)[C@H](CO)NC(=O)[C@H](C(C)C)NC1=O` [Example 1255] ({CH2CO}-FYDWV[Bip]R[Dab][NMeF]RLVSCG-NH2; thioether N-14): the pIC50 is 6.37.

`CC(C)C[C@@H]1NC(=O)[C@H](CCCNC(=N)N)NC(=O)[C@H](Cc2ccccc2)N(C)C(=O)[C@H](C)N(C)C(=O)[C@H](CCCNC(=N)N)NC(=O)[C@H](Cc2ccc(-c3ccccc3)cc2)NC(=O)[C@H](C(C)C)NC(=O)[C@H](Cc2c[nH]c3ccccc23)NC(=O)[C@H](CC(=O)O)NC(=O)[C@H](Cc2ccc(O)cc2)NC(=O)[C@H](Cc2ccccc2)NC(=O)CSC[C@@H](C(=O)N[C@@H](CCC(=O)O)C(N)=O)NC(=O)[C@H](CO)NC(=O)[C@H](C(C)C)NC1=O` [Example 1105] ({CH2CO}-FYDWV[Bip]R[NMeA][NMeF]RLVSCE-NH2; thioether N-14): the pIC50 is 6.48.

As for `CC(C)C[C@@H]1NC(=O)[C@H](Cc2c[nH]c3ccccc23)NC(=O)[C@H](CC(=O)O)NC(=O)[C@H](Cc2ccc(O)cc2)NC(=O)[C@H](Cc2ccccc2)NC(=O)CSC[C@@H](C(=O)N[C@@H](C)C(N)=O)NC(=O)[C@H](CO)NC(=O)[C@H](C(C)C)NC(=O)[C@H](CC(C)C)NC(=O)[C@H](CC(N)=O)NC(=O)[C@H](Cc2ccccc2)N(C)C(=O)[C@H](C)N(C)C(=O)[C@H](CCCNC(=N)N)NC(=O)[C@H](Cc2ccc(-c3ccccc3)cc2)NC1=O` [Example 1095] ({CH2CO}-FYDWL[Bip]R[NMeA][NMeF]NLVSCA-NH2; thioether N-14), the negative logarithm of the IC50 (pIC50) was 6.55.

In the case of `CC(C)C[C@@H]1NC(=O)[C@H](Cc2c[nH]c3ccccc23)NC(=O)[C@H](CC(=O)O)NC(=O)[C@H](Cc2ccncc2)NC(=O)[C@H](Cc2ccccc2)NC(=O)CSC[C@@H](C(=O)N[C@@H](C)C(N)=O)NC(=O)[C@H](CO)NC(=O)[C@H](C(C)C)NC(=O)[C@H](CC(C)C)NC(=O)[C@H](CC(N)=O)NC(=O)CN(C)C(=O)[C@H](C)N(C)C(=O)[C@H](C(C)C)NC(=O)[C@H](Cc2ccc(-c3ccccc3)cc2)NC1=O` [Example 1064] ({CH2CO}-F[4Pal]DWL[Bip]V[NMeA][Sar]NLVSCA-NH2; thioether N-14), the negative logarithm of the IC50 (pIC50) was 6.80.

Take `CC(C)C[C@@H]1NC(=O)[C@H](Cc2c[nH]c3ccccc23)NC(=O)[C@H](CC(=O)O)NC(=O)[C@H](Cc2ccc(O)cc2)NC(=O)[C@H](Cc2ccccc2)NC(=O)CSC[C@@H](C(=O)N[C@@H](C)C(N)=O)NC(=O)[C@H](CO)NC(=O)[C@H](C(C)C)NC(=O)[C@H](CC(C)C)NC(=O)[C@H](CC(N)=O)NC(=O)[C@H]2CCCCN2C(=O)[C@H]2CCCN2C(=O)[C@H](C(C)C)NC(=O)[C@H](Cc2ccc(-c3ccccc3)cc2)NC1=O` [Example 1006] ({CH2CO}-FYDWL[Bip]V[dP][dPip]NLVSCA-NH2; thioether N-14): the negative logarithm of the IC50 (pIC50) is 7.40.

On to `CC(C)C[C@@H]1NC(=O)[C@H](CCN)NC(=O)[C@H](Cc2ccccc2)N(C)C(=O)[C@H](C)N(C)C(=O)[C@H](CCCNC(N)=O)NC(=O)[C@H](Cc2ccc(-c3ccccc3)cc2)NC(=O)[C@H](C(C)C)NC(=O)[C@H](Cc2cccc(C(F)(F)F)c2)NC(=O)[C@H](CC(=O)O)NC(=O)[C@H](Cc2ccc(O)cc2)NC(=O)[C@H](CC(N)=O)NC(=O)CSC[C@@H](C(=O)N[C@@H](C)C(N)=O)NC(=O)[C@H]([C@@H](C)O)NC(=O)[C@H](C(C)C)NC1=O` [Example 1376] ({CH2CO}-NYD[Phe(3-CF3)]V[Bip][Cit][NMeA][NMeF][Dab]LVTCA-NH2; thioether N-14), for which the negative logarithm of the IC50 (pIC50) is 7.15.

`CC(C)C[C@@H]1NC(=O)[C@H](Cc2c[nH]c3ccccc23)NC(=O)[C@H](CC(=O)O)NC(=O)[C@H](Cc2ccc(O)cc2)NC(=O)[C@H](CC(N)=O)NC(=O)CSC[C@@H](C(=O)NCC(N)=O)NC(=O)[C@H](CO)NC(=O)[C@H](C(C)C)NC(=O)[C@H](CC(C)C)NC(=O)[C@H](CC(N)=O)NC(=O)CN(C)C(=O)[C@H](C)N(C)C(=O)[C@H](C(C)C)NC(=O)[C@H](Cc2ccc(-c3ccccc3)cc2)NC1=O` [Example 1140] ({CH2CO}-NYDWL[Bip]V[NMeA][Sar]NLVSCG-NH2; thioether N-14): the pIC50 was 6.22.

Regarding `Cc1cccc(C[C@@H]2NC(=O)[C@H](CC(=O)O)NC(=O)[C@H](Cc3ccncc3)NC(=O)[C@H](Cc3ccc(OCC(=O)O)cc3)NC(=O)CSC[C@@H](C(=O)N[C@@H](C)C(N)=O)NC(=O)[C@H]([C@@H](C)O)NC(=O)[C@H](C(C)C)NC(=O)[C@H](CC3CCCCC3)NC(=O)[C@H](CCN)NC(=O)[C@H](Cc3ccccc3)N(C)C(=O)[C@H](CCCN)NC(=O)[C@H](CCC(=O)O)NC(=O)[C@H](Cc3ccc(-c4ccccc4)cc3)NC(=O)C(C(C)C)NC2=O)c1` (stereo partly drawn) [Example 1446] ({CH2CO}-Y(Carboxymethyl)[4Pal]D[Phe(3-Me)][ξV][Bip]E[Orn][NMeF][Dab][Cha]VTCA-NH2; thioether N-14), the pIC50 was 7.70.
